Reference: patent US20240150377A1, “MODULATORS OF CYSTIC FIBROSIS TRANSMEMBRANE CONDUCTANCE REGULATOR” (VERTEX PHARMACEUTICALS INCORPORATED, priority 2020, published 2024)
Like-named read-outs stand apart in the source and are kept apart here.

Assays:
[1] = amide bond, 13-membered ring, DMF
[2] = molecular target: T1, CFTR (Homo sapiens, UniProt P13569, DEL508-508); assay: HBE assay: Ussing chamber assay of CFTR-mediated short-circuit currents; type: cell-based; details: for EC50: read-out: HBE EC50; for activation at 10 µM: read-out: HBE Activity at 10 μM (%)
T1 construct: endogenous in cells; host or cells: primary human bronchial epithelial cells from CF subjects (F508del/MF-HBE), differentiated at air-liquid interface
Method in brief: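 CFTR-mediated Isc (μA/cm²) equals the peak response to apical 20 μM forskolin minus the residual after a 20 μM each BPO/GlyH-101/CFTR inhibitor 172 cocktail, recorded in Ussing chambers at Vhold 0 mV, 37 °C, pH 7.4, with 30 μM apical amiloride. Cells were F508del/MF HBE cultures preincubated 18-24 h with corrector (concentration range or 10 μM) plus 1 μM ivacaftor in 20% human serum.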

[3] = Table 11, read-out: HBE Max Activity (%)
[4] = Table 10, read-out: HBE Max activity (%)

T1 sequence (P13569 with tags, fused parts or gaps DEL508-508): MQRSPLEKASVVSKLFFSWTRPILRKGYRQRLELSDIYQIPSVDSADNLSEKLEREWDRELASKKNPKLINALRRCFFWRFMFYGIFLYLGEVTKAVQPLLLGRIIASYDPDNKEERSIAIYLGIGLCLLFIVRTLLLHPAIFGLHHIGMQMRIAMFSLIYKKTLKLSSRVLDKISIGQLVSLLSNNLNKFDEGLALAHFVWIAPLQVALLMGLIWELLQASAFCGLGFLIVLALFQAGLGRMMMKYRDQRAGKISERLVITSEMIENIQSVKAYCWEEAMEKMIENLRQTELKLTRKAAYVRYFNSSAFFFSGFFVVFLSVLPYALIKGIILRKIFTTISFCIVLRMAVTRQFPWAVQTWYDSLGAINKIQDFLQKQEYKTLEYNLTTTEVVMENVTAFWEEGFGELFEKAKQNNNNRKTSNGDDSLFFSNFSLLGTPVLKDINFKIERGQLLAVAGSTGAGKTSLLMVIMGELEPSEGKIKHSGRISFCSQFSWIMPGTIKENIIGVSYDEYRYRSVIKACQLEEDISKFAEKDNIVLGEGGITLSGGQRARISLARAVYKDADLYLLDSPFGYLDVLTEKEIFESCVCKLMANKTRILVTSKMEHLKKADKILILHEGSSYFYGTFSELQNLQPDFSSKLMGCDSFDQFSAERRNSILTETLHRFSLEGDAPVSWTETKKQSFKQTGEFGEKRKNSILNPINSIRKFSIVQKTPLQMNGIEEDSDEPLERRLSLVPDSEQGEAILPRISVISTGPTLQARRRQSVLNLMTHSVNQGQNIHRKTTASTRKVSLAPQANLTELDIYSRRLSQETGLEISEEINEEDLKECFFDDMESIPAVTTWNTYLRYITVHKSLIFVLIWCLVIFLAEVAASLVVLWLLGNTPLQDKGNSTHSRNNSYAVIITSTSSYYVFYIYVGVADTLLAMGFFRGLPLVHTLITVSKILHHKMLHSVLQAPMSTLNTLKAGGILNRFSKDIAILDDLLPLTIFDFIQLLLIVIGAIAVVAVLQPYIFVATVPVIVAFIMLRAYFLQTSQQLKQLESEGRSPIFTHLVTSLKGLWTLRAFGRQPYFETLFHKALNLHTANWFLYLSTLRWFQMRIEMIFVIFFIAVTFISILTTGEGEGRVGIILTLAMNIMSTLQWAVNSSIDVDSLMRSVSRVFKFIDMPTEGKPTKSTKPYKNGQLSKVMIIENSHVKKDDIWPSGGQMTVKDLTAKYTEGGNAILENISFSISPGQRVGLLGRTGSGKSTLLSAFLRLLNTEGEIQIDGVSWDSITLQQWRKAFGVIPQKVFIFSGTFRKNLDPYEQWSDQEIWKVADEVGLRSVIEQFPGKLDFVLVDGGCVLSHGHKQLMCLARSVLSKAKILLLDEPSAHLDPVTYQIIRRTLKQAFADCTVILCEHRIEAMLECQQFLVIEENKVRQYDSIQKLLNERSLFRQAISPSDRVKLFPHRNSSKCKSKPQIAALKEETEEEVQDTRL

EC50 ([2]; Table 11) [nM]	Emax [2, 3] [%]	EC50 ([2]; Table 10) [nM]	Emax [2, 4] [%]	SMILES	other results
1000 to 3000	> 60			Cc1cccc(C)c1-c1cc2nc(n1)NS(=O)(=O)c1cccc(c1)C(=O)N(Cc1ncc(N3CCC(C)(C)C3)cn1)[C@H](CC(C)(C)C)CO2 [Compound 119, (11R)-6-(2,6-Dimethylphenyl)-11-(2,2-dimethylpropyl)-12-[[5-(3,3-dimethylpyrrolidin-1-yl)pyrimidin-2-yl]methyl]-2,2-dioxo-9-oxa-2λ^6-thia-3,5,12,19-tetrazatricyclo[12.3.1.14,8]nonadeca-1(18),4(19),5,7,14,16-hexaen-13-one]	ring closure, yield after HPLC ([1]; from 3-[[4-(2,6-dimethylphenyl)-6-[(2R)-2-[[5-(3,3-dimethylpyrrolidin-1-yl)pyrimidin-2-yl]methylamino]-4,4-dimethyl-pentoxy]pyrimidin-2-yl]sulfamoyl]benzoic acid (Dihydrochloride salt), CDMT/NMM, 29.4 mM): 47%
		< 1000	> 60	Cc1cccc(C)c1-c1cc2nc(n1)NS(=O)(=O)c1cccc(c1)C(=O)N(Cc1cc(C(C)(C)C)[nH]n1)[C@H](CC(C)(C)C)CO2 [Compound 134, (11R)-12-[(5-tert-Butyl-1H-pyrazol-3-yl)methyl]-6-(2,6-dimethylphenyl)-11-(2,2-dimethylpropyl)-2,2-dioxo-9-oxa-2λ^6-thia-3,5,12,19-tetrazatricyclo[12.3.1.14,8]nonadeca-1(18),4(19),5,7,14,16-hexaen-13-one]	ring closure, yield after HPLC ([1]; from Cc1cccc(C)c1-c1cc(OC[C@@H](CC(C)(C)C)NCc2cc(C(C)(C)C)[nH]n2)nc(NS(=O)(=O)c2cccc(C(=O)O)c2)n1, CDMT/NMM, 3.0 h, 2 steps): 20%
< 1000	> 60			Cc1cccc(C)c1-c1cc2nc(n1)NS(=O)(=O)c1cccc(c1)C(=O)N(Cc1ncc(NCC(C)(C)C)cn1)[C@H](CC(C)(C)C)CO2 [Compound 116, (11R)-6-(2,6-Dimethylphenyl)-11-(2,2-dimethylpropyl)-12-[[5-(2,2-dimethylpropylamino)pyrimidin-2-yl]methyl]-2,2-dioxo-9-oxa-2λ^6-thia-3,5,12,19-tetrazatricyclo[12.3.1.14,8]nonadeca-1(18),4(19),5,7,14,16-hexaen-13-one]	ring closure, yield after HPLC ([1]; from 3-[[4-(2,6-dimethylphenyl)-6-[(2R)-2-[[5-(2,2-dimethylpropylamino)pyrimidin-2-yl]methylamino]-4,4-dimethyl-pentoxy]pyrimidin-2-yl]sulfamoyl]benzoic acid (Dihydrochloride salt), HATU/DIEA, 23.6 mM, 25.0 °C): 15%; activation at 10 µM ([2]; Table 11): > 60%
		< 1000	> 60	Cc1cccc(C)c1-c1cc2nc(n1)NS(=O)(=O)c1cccc(c1)C(=O)N(Cc1ncc(N(C)CC(C)(C)C)cn1)[C@H](CC(C)(C)C)CO2 [Compound 115, (11R)-6-(2,6-Dimethylphenyl)-11-(2,2-dimethylpropyl)-12-[[5-[2,2-dimethylpropyl(methyl)amino]pyrimidin-2-yl]methyl]-2,2-dioxo-9-oxa-2λ^6-thia-3,5,12,19-tetrazatricyclo[12.3.1.14,8]nonadeca-1(18),4(19),5,7,14,16-hexaen-13-one]	ring closure, yield after HPLC ([1]; from 3-[[4-(2,6-dimethylphenyl)-6-[(2R)-2-[[5-[2,2-dimethylpropyl(methyl)amino]pyrimidin-2-yl]methylamino]-4,4-dimethyl-pentoxy]pyrimidin-2-yl]sulfamoyl]benzoic acid (Dihydrochloride salt), HATU/DIEA, 19.3 mM, 25.0 °C): 50%
< 1000	> 60			Cc1cc(C)nc(CN2C(=O)c3cccc(c3)S(=O)(=O)Nc3nc(cc(-c4c(C)cccc4C)n3)OC[C@H]2CC(C)(C)C)c1 [Compound 55, (11R)-6-(2,6-Dimethylphenyl)-11-(2,2-dimethylpropyl)-12-[(4,6-dimethylpyridin-2-yl)methyl]-9-oxa-2λ^6-thia-3,5,12,19-tetraazatricyclo[12.3.1.14,8]nonadeca-1(18),4,6,8(19),14,16-hexaene-2,2,13-trione]	ring closure, yield after HPLC ([1]; from 3-[[4-(2,6-dimethylphenyl)-6-[(2R)-2-[(4,6-dimethyl-2-pyridyl)methylamino]-4,4-dimethyl-pentoxy]pyrimidin-2-yl]sulfamoyl]benzoic acid (Dihydrochloride salt), CDMT/NMM, 42.2 mM, 25.0 °C): 44%
		< 1000	> 60	Cc1cc(N2CCOCC2)cnc1CN1C(=O)c2cccc(c2)S(=O)(=O)Nc2nc(cc(-c3c(C)cccc3C)n2)OC[C@H]1CC(C)(C)C [Compound 57, (11R)-6-(2,6-Dimethylphenyl)-11-(2,2-dimethylpropyl)-12-[(3-methyl-5-morpholino-2-pyridyl)methyl]-2,2-dioxo-9-oxa-2λ^6-thia-3,5,12,19-tetrazatricyclo[12.3.1.14,8]nonadeca-1(18),4(19),5,7,14,16-hexaen-13-one]	ring closure, yield after HPLC ([1]; from Cc1cc(N2CCOCC2)cnc1CN[C@@H](COc1cc(-c2c(C)cccc2C)nc(NS(=O)(=O)c2cccc(C(=O)O)c2)n1)CC(C)(C)C, CDMT/NMM, 25.0 °C, 3.5 h, 2 steps): 19%
				Cc1cccc(C)c1-c1cc2nc(n1)NS(=O)(=O)c1cccc(c1)C(=O)N(Cc1cn(C)nn1)[C@H](CC(C)(C)C)CO2 [Compound 140, (11R)-6-(2,6-Dimethylphenyl)-11-(2,2-dimethylpropyl)-12-[(1-methyltriazol-4-yl)methyl]-2,2-dioxo-9-oxa-2λ^6-thia-3,5,12,19-tetrazatricyclo[12.3.1.14,8]nonadeca-1(18),4(19),5,7,14,16-hexaen-13-one]	ring closure, yield after HPLC ([1]; from Cc1cccc(C)c1-c1cc(OC[C@@H](CC(C)(C)C)NCc2cn(C)nn2)nc(NS(=O)(=O)c2cccc(C(=O)O)c2)n1, HATU/DIEA, 29.1 mM, 15.0 h): 25%; activation at 10 µM ([2]; Table 11): > 60%
		< 1000	> 60	Cc1cccc(C)c1-c1cc2nc(n1)NS(=O)(=O)c1cccc(c1)C(=O)N(Cc1ncc(N3CCOCC3)cc1N1CCOCC1)[C@H](CC(C)(C)C)CO2 [Compound 56, (11R)-6-(2,6-Dimethylphenyl)-11-(2,2-dimethylpropyl)-12-[(3,5-dimorpholino-2-pyridyl)methyl]-2,2-dioxo-9-oxa-2λ^6-thia-3,5,12,19-tetrazatricyclo[12.3.1.14,8]nonadeca-1(18),4(19),5,7,14,16-hexaen-13-one]	ring closure, yield after HPLC ([1]; from Cc1cccc(C)c1-c1cc(OC[C@@H](CC(C)(C)C)NCc2ncc(N3CCOCC3)cc2N2CCOCC2)nc(NS(=O)(=O)c2cccc(C(=O)O)c2)n1, CDMT/NMM, 25.0 °C, 2.5 h, 2 steps): 22%
		< 1000	> 60	Cc1cccc(C)c1-c1cc2nc(n1)NS(=O)(=O)c1cccc(c1)C(=O)N(Cc1ccc3ccccc3n1)[C@H](CC(C)(C)C)CO2 [Compound 58, (11R)-6-(2,6-Dimethylphenyl)-11-(2,2-dimethylpropyl)-2,2-dioxo-12-(2-quinolylmethyl)-9-oxa-2λ^6-thia-3,5,12,19-tetrazatricyclo[12.3.1.14,8]nonadeca-1(18),4(19),5,7,14,16-hexaen-13-one]	ring closure, yield after HPLC ([1]; from 3-[[4-(2,6-dimethylphenyl)-6-[(2R)-4,4-dimethyl-2-(2-quinolylmethylamino)pentoxy]pyrimidin-2-yl]sulfamoyl]benzoic acid (Dihydrochloride salt), HATU/DIEA, 27.5 mM, 25.0 °C): 73%
< 1000	> 60			Cc1cccc(C(C)C)c1-c1cc2nc(n1)NS(=O)(=O)c1cccc(c1)C(=O)N(Cc1ncc(N3CCOCC3)cn1)[C@H](CC(C)(C)C)CO2 [Compound 6, (11R)-11-(2,2-Dimethylpropyl)-6-[2-methyl-6-(propan-2-yl)phenyl]-12-{[5-(morpholin-4-yl)pyrimidin-2-yl]methyl}-9-oxa-2λ^6-thia-3,5,12,19-tetraazatricyclo[12.3.1.14,8]nonadeca-1(17),4(19),5,7,14(18),15-hexaene-2,2,13-trione]	ring closure, yield after HPLC ([1]; from Cc1cccc(C(C)C)c1-c1cc(OC[C@@H](CC(C)(C)C)NCc2ncc(N3CCOCC3)cn2)nc(NS(=O)(=O)c2cccc(C(=O)O)c2)n1, CDMT/NMM, 54.0 mM, 25.0 °C, 60.0 h, 2 steps): 21%
		< 1000	> 60	Cc1cccc(C)c1-c1cc2nc(n1)NS(=O)(=O)c1cccc(c1)C(=O)N(Cc1ccc(N3CCOCC3)cn1)[C@H](CC1CC3(CCC3)C1)CO2 [Compound 3, (11R)-6-(2,6-Dimethylphenyl)-12-[(5-morpholino-2-pyridyl)methyl]-2,2-dioxo-11-(spiro[3.3]heptan-2-ylmethyl)-9-oxa-2λ^6-thia-3,5,12,19-tetrazatricyclo[12.3.1.14,8]nonadeca-1(18),4(19),5,7,14,16-hexaen-13-one]	ring closure, yield after HPLC ([1]; from Cc1cccc(C)c1-c1cc(OC[C@@H](CC2CC3(CCC3)C2)NCc2ccc(N3CCOCC3)cn2)nc(NS(=O)(=O)c2cccc(C(=O)O)c2)n1, CDMT/NMM, 25.0 °C, 2.5 h, 2 steps): 11%
				Cc1cccc(C)c1-c1cc2nc(n1)N=S(N)(=O)c1cccc(c1)C(=O)N(Cc1ncc(N3CC(C)(C)C3)cn1)[C@H](CC(C)(C)C)CO2 (single isomer, unassigned; isomer b)	ring closure, yield after HPLC ([1]; from 3-[[[4-[(2R)-2-[[5-(3,3-dimethylazetidin-1-yl)pyrimidin-2-yl]methylamino]-4,4-dimethyl-pentoxy]-6-(2,6-dimethylphenyl)pyrimidin-2-yl]amino]sulfonimidoyl]benzoic acid (hydrochloride salt) isomer B, CDMT/NMM, 18.4 mM): 4%

SMILES	EC50 ([2]; Table 11) [nM]	Emax [2, 3] [%]	EC50 ([2]; Table 10) [nM]	Emax [2, 4] [%]	other results
Cc1cccc(C)c1-c1cc2nc(n1)NS(=O)(=O)c1cccc(c1)C(=O)N(Cc1ccc(OC3CCCC3)cn1)[C@H](CC(C)(C)C)CO2 [Compound 49, (11R)-12-[[5-(Cyclopentoxy)-2-pyridyl]methyl]-6-(2,6-dimethylphenyl)-11-(2,2-dimethylpropyl)-2,2-dioxo-9-oxa-2λ^6-thia-3,5,12,19-tetrazatricyclo[12.3.1.14,8]nonadeca-1(18),4(19),5,7,14,16-hexaen-13-one]			1000 to 3000	> 60	ring closure, yield after HPLC ([1]; from 3-[[4-[(2R)-2-[[5-(cyclopentoxy)-2-pyridyl]methylamino]-4,4-dimethyl-pentoxy]-6-(2,6-dimethylphenyl)pyrimidin-2-yl]sulfamoyl]benzoic acid (Dihydrochloride salt), HATU/DIEA, 28.0 mM, 25.0 °C): 49%
